Assay results from patent US20260355188A1, “COMBINATION THERAPIES USING PRMT5 INHIBITORS AND BCL-2 FAMILY INHIBITORS FOR THE TREATMENT OF CANCER” (MIRATI THERAPEUTICS, INC., priority 2022, published 2026).

What was measured:
H1437 = assay: In vitro combination synergy, H1437 (Cell-Titer Glo); assay type: cell-based; settings: combined with exemplary PRMT5 inhibitor, 120 h, sum of Loewe, Bliss, HSA and ZIP scores
Procedure: A panel of MTAP-deleted cancer cell lines was assembled to determine whether combining BCL-2 family inhibitors with exemplary PRMT5 inhibitors disclosed herein results in synergistic activity.
[Assays for determining the synergy score for the pairwise combinations for each cell line were performed in triplicate. 384 or 96-well plates plus additional wells of a separate 384 or 96-well control plate for determining baseline luminescence were seeded with cells of a particular MTAP-deleted cell line in a suitable growth medium for that cell line, e.g., RPMI 1640 medium supplemented with 10% FBS and any cell line specific reagents needed for growth. The plates were incubated overnight at 37 °C in a 5% CO2 atmosphere.
To each of the designated baseline wells, Cell-Titer Glo reagent (CTG; Promega Corporation) was added to each well and the plates were incubated for 20 min shaking at room temperature. Baseline luminescence was quantitated using a BMG ClarioStar multimode plate reader according to the manufacturer's instructions.
A series of 1000× drug dilutions in 100% DMSO was prepared that includes a 9-point single agent 3-fold dilution of the exemplary PRMT5 inhibitor (of the type described in WO2021/050915) with a top dose of 3000 nM (and a 6-point single agent 5-fold dilution of the BCL-2 family inhibitor with a top dose of 3000 nM as reference standards.
A 10× intermediate dosing plate was prepared in serum free medium that contains arrayed single agent dilutions of exemplary PRMT5 inhibitor (of the type described in WO2021/050915) and or the BCL-2 family inhibitor. In addition, a matrix of 54 dilution combinations of exemplary PRMT5 inhibitor (of the type described in WO2021/050915) and the BCL-2 family inhibitor was prepared as test samples.
To each corresponding well of the 384-well plates seeded with the appropriate cell line above, 10× single agent and the 54 combinations of the dose matrix was added and the plates were incubated for 120 hours at 37 °C in 5% CO2 atmosphere. Cell-Titer Glo reagent (CTG) was added to each test well, the plates were incubated for 20 min shaking at room temperature, and luminescence was quantitated using a BMG ClarioStar multimode plate reader according to the manufacturer's instructions. To normalize test samples, the determined baseline luminescence was subtracted from each test sample prior to analysis and mean values are calculated from replicate samples.
The output of the data from each mathematical model is the assignment of a relative synergy score. The data reported in Table 6 are the aggregate sum of the Loewe additivity, Bliss independence, Highest Single Agent and ZIP synergy scores (“Composite Synergy Score”).

[1] = oral; cited from earlier work

Q: With `Cc1c(-c2ccc(N3CCc4cccc(C(=O)Nc5nc6ccccc6s5)c4C3)nc2C(=O)O)cnn1CC12CC3CC(CC(C3)C1)C2` [A-1331852] as the molecule, how does the “Composite Synergy Score” value (H1437) read?
A: 36

Q: What about the “bioavailable when administered orally” value [1] of the same molecule?
A: known to be bioavailable when administered orally

Q: With `CC1(C)CCC(c2ccc(Cl)cc2)=C(CN2CCN(c3ccc(C(=O)NS(=O)(=O)c4ccc(N[C@H](CCN5CCOCC5)CSc5ccccc5)c(S(=O)(=O)C(F)(F)F)c4)cc3)CC2)C1` [ABT-263, navitoclax] as the molecule, how does the “Composite Synergy Score” value (H1437) read?
A: 13
